Assay results taken from patent US12502393B2, “Dual mode of action soluble guanylate cyclase activators and phosphodiesterase inhibitors and uses thereof” (TOPADUR PHARMA AG, priority 2018, dated 2025).
Like-named read-outs stand apart in the source and are kept apart here.

Columns and labels:
[1] = target: T1, recombinant human (rh) PDE5A (Homo sapiens, UniProt O76074); test: Phosphodiesterase-5 activity assay (radiometric SPA); type: biochemical; conditions: rhPDE5A1, 0.5 μM cGMP, 20 min at 37° C.
T1 construct: GST; purchased SIGMA E9034

[2] = tested on: Rat aortic smooth muscle cells; test: Cellular cGMP assay in rat aortic smooth muscle cells; type: cell-based; conditions: 10 μM Riociguat; for Ratio Maximum cGMP increase vs Baseline: 5 mM GSH, incubation 2 h
Method: Examples (Test compounds) were characterized for their potency and efficacy to elevate cGMP in cellular systems such as human trabecular meshwork cells (Table 3), human platelets (Table 5) and rat aortic smooth muscle cells (Table 4).
Human trabecular meshwork cells (ABC Biopply AG, Solothurn, Switzerland) or rat aortic smooth muscle cells (Sigma Aldrich AG, Buchs, Switzerland) were plated in a 96 well plate precoated with collagen (Collagen Type I solution from rat tail, Sigma; diluted to 0.1 mg/ml) at 20.000 cells per well and grown in corresponding Trabecular Meshwork (ABC Supply AG) or Smooth Muscle (Sigma AG) Growth medium as provided by the manufacturers. After 18 h medium was exchanged and new medium added supplemented with 5 mM GSH. The next day culture medium was exchanged to DMEM with low glucose supplemented with 5 mM GSH. Cells were pre-incubated with 10 μM Riociguat (soluble guanylate cyclase stimulator; Lucerna-Chem AG, Luzern, Switzerland) for 15 min before test or reference compounds or vehicle was added to a final incubation volume of 100 μl per well. At the end of the incubation time (see below) the reaction was terminated by adding HCl (0.16M), IBMX (Isobutylmethylxanthin) (2 mM) in DMSO (2%) to the culture medium, final concentrations per well are given in brackets. Following a 20 sec on a plate shaker (200 rpm) the plate was immediately frozen at −80° C.
(§1) cGMP was determined by a commercially available ELISA kit (Direct cGMP ELISA kit, Enzo Life Sciences AG, Lauren, Switzerland) with a lower detection limit of 0.08 pmol/ml using the acetylation protocol following manufacturer's instructions. Results are given as the means from at least two independent experiments each in triplicate.
(§2) To study concentration-dependent effects on total cGMP test and reference compounds were investigated from 0.1 nM to 1 μM in half-logarithmic steps with an incubation time of 2 h. To examine the time course the incubation times were (min) 10, 30, 60, 90, 120 at 1 μM of test or reference compound.
(§3) Compounds were diluted from stock solutions in DMSO. The final concentration of DMSO in all wells including the vehicle controls was 0.2% for human trabecular meshwork and rat aortic smooth muscle cells and 0.3% for platelets.
(§4) From time course experiments, the time to half of the maximum cGMP increase with 1 μM of test compound has been extrapolated (t0.5max).

[3] = Human plasma protein binding; type: in vitro ADME; conditions: for fraction unbound: human
Method: An aliquot of 200 μL of human plasma containing test compound was spiked into donor well (red chamber) of the insert. 350 μL of PBS was spiked into receiver well (white chamber) of the insert.
The samples were matrix equilibrated with opposite matrix (25 μL of plasma/buffer sample was matched with 25 μL of blank buffer/plasma). Matrix matched samples were precipitated with 200 μL of acetonitrile containing internal standard. Samples were vortexed at 1000 rpm for 5 min and centrifuged at 4000 rpm for 10 min. Supernatant was separated, diluted 2 fold with water and analysed in LC-MS/MS. (Table 2).

Human Platelets = test: Total cGMP in human platelets; type: cell-based; conditions: for Ratio Maximum cGMP increase vs Baseline: 1 μM riociguat and 100 nM BAY 190954, incubation 2 h; for Concentration (nM) for 3-fold cGMP or 2-fold* increase vs Baseline: 3-fold increase (values without asterisk), 1 μM riociguat, 100 nM BAY 190954
Method: Effects of test and reference compounds on total cGMP in human platelets were investigated as described by Dunkern and Hatzelmann (Cell Signal. 17: 331-9, 2005) with modifications. Briefly, buffy coats (acquired form SRK Blutspende Zurich) were 4-fold diluted in 150 mM sodium chloride solution containing 0.9% sodium citrate and centrifuged at 200 g for 10 min. The resulting platelet-rich plasma was supplemented with a 1/10 volume of ACD solution (85 mM sodium citrate, 111 mM D-glucose, 71 mM citric acid, pH 4.4) and apyrase (Sigma AG) to a final concentration of 2 U/ml. After another centrifugation (1400 g, 10 min) the cellular pellet was resuspended in Ca2+/Mg2+-free Hepes-Tyrode buffer (134 mM NaCl, 12 mM NaHCO3, 2.9 mM KCl, 0.36 mM NaH2PO4, 5 mM HEPES, 5 mM glucose, 0.5% (w/v) bovine serum albumin, pH 7.4) and platelets were counted.
Platelets were used at 9×10^7 cells in 100 μl per well and after adding test and reference compounds the incubation volume was 200 μl per well in Hepes-Tyrode. Experiments in platelets were done in presence of 1 μM riociguat and 100 nM BAY 190954 (PDE2 inhibitor) (Lucerna Chem AG) and test/reference compounds were added after a preincubation time of 15 min. At the end of the incubation time (see below) the reaction was terminated by adding 20 μl of 2N HCl per well. Following a 20 sec on a plate shaker (300 rpm) the plate was left for 15 min and then centrifuged at 1000×g for 5 min. Supernatants were stored at −80° C.
as §1, §2, §3, §4

[4] = tested on: Human Trabecular Meshwork Cells; test: Cellular cGMP assay in human trabecular meshwork cells; type: cell-based; conditions: 10 μM Riociguat; for Concentration (nM) for 3-fold or 2-fold* cGMP increase vs Baseline: 3-fold increase (values without asterisk); for Ratio Maximum cGMP increase vs Baseline: 5 mM GSH, incubation 2 h
[5] = tested on: Human Pulmonary Artery Smooth Muscle Cells (hPASMC); test: cGMP in human pulmonary artery smooth muscle cells (hPASMC); type: cell-based; conditions: 30 min incubation, FIG. 4
Method: Human Pulmonary Artery Smooth Muscle Cells (hPASMC) were purchased from Clonetics™ Lonza (Lonza, reference number CC-2581) and cultured in Clonetics™ smooth muscle growth medium (Clonetics™ SmGM™-2 with BulletKit™ growth factor supplements (Lonza, reference number CC-3182) at 37° C. in 5% CO2. Culture medium was replaced each 48 hours. Cells were grown in 75 cm^2 culture plates.
48 h before the experiments, cells were trypsinized (Trypsin kit One ReagentPack™ (CC-5034), Lonza) and plated in 96 well plates precoated with collagen I at 10000 cells per well. 24 h before the experiments culture medium was replaced by serum-reduced (0.5% FBS) medium.
Measurements of intracellular cGMP were performed using the Amersham cGMP EIA System (GE Healthcare, RPN226) following the instructions of the manufacturer. The assay has a sensitivity of 2 fmol cGMP per well. Briefly, incubations were terminated by adding Amersham's lysis buffer 1 and cells left for 10 min under agitation to ensure complete lysis. cGMP in samples was then acetylated using triethylamine and acetic anhydride and determined by a competitive ELISA. The ELISA is based on the competition between acetylated cGMP in cell culture lysates and a peroxidase-labelled cGMP conjugate for limited binding sites on a cGMP specific antiserum immobilized on pre-coated 96 well MTP. cGMP was determined based on a standard curve. […]

[6] = read-out: % Unbound in human plasma

fraction unbound ([3]; read-out: % Bound in human plasma (converted)) | Structure (SMILES) | IC50 [1] | Concentration (nM) for 3-fold cGMP increase vs Baseline [2] | Ratio Maximum cGMP increase vs Baseline [2] | fraction unbound [3, 6] | Ratio Maximum cGMP increase vs Baseline (Human Platelets) | Concentration (nM) for 3-fold cGMP or 2-fold* increase vs Baseline (Human Platelets) | Concentration (nM) for 3-fold or 2-fold* cGMP increase vs Baseline ([4]; HTMC) | Ratio Maximum cGMP increase vs Baseline ([4]; HTMC) | efficacy in increasing cGMP level as compared to the reference inhibitor vardenafil [5] | % Bound in human plasma [3] | effect to elevate cGMP in HTMC compared with organic nitrate ester ITN and PDE5 inhibitors sildenafil or vardenafil ([4]; HTMC, FIG. 3A and FIG. 3B) | concentration equipotent to ITN & Vardenafil to elevate cGMP in HTMC ([4]; equipotent to 1 μM ITN & 1 μM Vardenafil) | concentration equipotent to ITN & Vardenafil to elevate cGMP in HTMC ([4]; equipotent to 10 μM ITN & 1 μM Vardenafil) | concentration equipotent to ITN & Sildenafil to elevate cGMP in HTMC ([4]; first value of pair 10.6 nM/50.8 nM, printed against 10 μM ITN & 1 μM Sildenafil) | concentration equipotent to ITN & Sildenafil to elevate cGMP in HTMC ([4]; second value of pair 10.6 nM/50.8 nM, equipotent to 10 μM ITN & 1 μM Sildenafil)
0.0118 | CCCc1nn(C)c2c(=O)[nH]c(-c3cc(S(=O)(=O)N4CCC([C@@H](O)CO[N+](=O)[O-])CC4)ccc3OCC)nc12 [Compound 1c, (R)-2-(1-((4-ethoxy-3-(1-methyl-7-oxo-3-propyl-6,7-dihydro-1H-pyrazolo[4,3-d]pyrimidin-5-yl)phenyl)sulfonyl)piperidin-4-yl)-2-hydroxyethyl nitrate] | 1 nM | 1300 nM | 3.47 | 0.0118 | 26.1 | 33.3 nM | 25.1 nM | 61.9 | significantly higher efficacy | – | – | – | – | – | –
– | CCCc1nc(C)c2c(=O)[nH]c(-c3cc(S(=O)(=O)N4CCC([C@H](CO[N+](=O)[O-])O[N+](=O)[O-])CC4)ccc3OCC)nn12 [Compound 2a, (R)-1-(1-((4-ethoxy-3-(5-methyl-4-oxo-7-propyl-3,4-dihydroimidazo[5,1-f][1,2,4]triazin-2-yl)phenyl)sulfonyl)piperidin-4-yl)ethane-1,2-diyl dinitrate] | 0.42 nM | 293 nM | 10.58 | 0.002 | 152.5 | 3.3 nM | 4.2 nM | 101.7 | significantly higher efficacy | 99.80% | over-additive effects | 2.6 nM | 12.4 nM | 10.6 nM | 50.8 nM
